# Measured values taken from US20200405697A1, “Antitumor Agent” (Taiho Pharmaceutical Co., Ltd, priority 2017, published 2020).
# Experiments:
# [1] = test system: HCT116 (Human large intestine cancer cell line); test: Effect of combination of sulfonamide compound and other antitumor agent (CellTiter-Glo, combination index): HCT116; assay type: cell-based
# Method: Each cell line was seeded at 90 L/well to a 96-well culture plate (Thermo Fisher Scientific, Inc.) according to the above tables. The cell-seeded plate was cultured in an incubator set to 37° C. and 500 CO2. On the day following seeding, varying concentrations of the sulfonamide compound and the other antitumor agent were added in combination to the cells. […] The serial dilutions of each compound, or DW was added at 5μL/well to the plate such that each compound and DW, or the sulfonamide compound and the other antitumor agent were combined. […] The plate after the addition was cultured at 37° C. for 3 days under 5% CO2 conditions.
# Three days later, CellTiter-Glo(R) 2.0 Reagent (Promega Corporation) was added at 100 μL/well, and the amount of luminescence was measured using a plate reader EnSpire(R) Multimode Plate Reader (PerkinElmer Co., Ltd.).
# An average value from 3 wells was calculated as to each drug condition from the obtained data, and cell survival rate normalized against control wells supplemented with the vehicle (DW) was calculated. A Fa (fractional inhibition) value was calculated by subtracting the cell survival rate from 1.
# [2] = test system: MV-4-11; test: Antitumor effect in human-derived blood cancer cell line (MV-4-11) subcutaneous transplantation model (in vivo); set-up: species or system nude mouse (BALB/cA Jcl-nu/nu); settings: oral, 100 mg/kg/day once per day for 14 days; RTV vs control group, Student-t test, p<0.05
# Method: A human-derived blood cancer cell line MV-4-11 was transplanted subcutaneously into a nude mouse (BALB/cA Jcl-nu/nu, CLEA Japan, Inc.), and at the time when the tumor volume of the nude mouse on which the engrafted tumor reached 100 to 300 mm^3, four mice were assigned to each group by random stratification so that the average of the tumor volumes of each group was uniform (day 0), and the Example compound was orally administered daily at 100 mg/kg/day once per day for 14 days. Example Compound dosing solutions were prepared using 0.5% HPMC.
# An electric balance for animals was used in body weight measurement. Rate of change in body weight on day n (BWCn) from body weight on day n (BWn) was calculated according to the following equation.
# Rate of change in body weight BWCn (%)=(BWn−BW0)/BW0×100
# Tumor volume (TV) was calculated according to the following equation by sandwiching and measuring the major axis and the minor axis with a digital caliper.
# Tumor volume (mm^3)=Major axis (mm)×Minor axis (mm)×Minor axis (mm)/2
# In order to compare the chronological transition of proliferation of tumor for the administration of each compound, relative tumor volume (RTV) setting the tumor volume at the time of grouping as 1 as the tumor proliferation rate was calculated according to the following formula, and the transition of the average value of RTV of each individual are shown in FIGS. 1 to 4.
# RTV=(tumor volume at the day of tumor volume measurement)/(tumor volume at the time of the grouping)
# [3] = test system: GB-1 cells; test: Cell proliferation inhibitory effect on human cancer cell lines: GB-1; assay type: cell-based; settings: GB-1, Glioblastoma, DMEM + 10% FBS, 3000 cell/well
# Method: Human derived breast cancer cell line HCC 1806 cells (American Type Culture Collection, ATCC) were daily passaged at a cell density not exceeding 80% in ATCC recommended Roswell Park Memorial Institute medium (RPMI-1640) containing 10% fetal bovine serum (FBS). In order to start the test of cell proliferation inhibitory activity, HCC 1806 cells were suspended in the above medium, after seeing at 180 μL in each well of a 96-well flat bottom plate so that the number of cells per well was 2,000, the cells were cultured at 37° C. for 1 day in an incubator containing 5% carbon dioxide gas.
# On the next day, the Example compound was dissolved in DMSO, and 20 μL of a drug additive solution diluted serially with distilled water to 10 times of the final concentration was added to each well of the culture plate of the cells, and the cells were cultured at 37° C. for 72 hours in an incubator containing 5% carbon dioxide gas. After culturing for 72 hours, 20 μL of glutaraldehyde was added to each well and allowed to stand for 30 minutes, then the plate was washed 10 times with water and was dried. 100 μL of a stain solution (0.05% crystal violet in a 20% methanol solution) was added to each well and allowed to stand for 30 minutes, then the plate was washed 10 times with water and was dried. 100 μL of an extract solution (0.1 N NaH2PO4: 100% ethanol=1:1) was added to each well and mixed, and the mixture was measured at a wavelength of 540 nm using a plate reader (MTP-450 manufactured by Corona Electric Co., Ltd.).
# The growth inhibition rate was calculated from the following formula, and the concentration (IC50 (μM)) of a compound inhibiting 50% was determined.
# According to the method of Test Example 2, the cell proliferation inhibitory effect on various cancer cell lines as described in Table 24 was evaluated. […]
# [4] = Example Compound 1 341 nM + Prexasertib 7.14 nM, molar ratio 1:0.02093
# [5] = Example Compound 1 512 nM + Prexasertib 10.7 nM, molar ratio 1:0.02093
# [6] = Example Compound 1 768 nM + AZD6738 508 nM, molar ratio 1:0.6621
# [7] = Example Compound 1 768 nM + Prexasertib 16.1 nM, molar ratio 1:0.02093
# [8] = Example Compound 1 1150 nM + AZD6738 761 nM, molar ratio 1:0.6621
structure (smiles),measurement,setting,value
"Cc1ccc(F)c([C@@H](C)[C@H](NS(=O)(=O)c2ccc(Br)cc2C(N)=O)c2n[nH]c(=O)o2)c1C [Example 1, 5-bromo-2-(N-((1 S,2R)-2-(6-fluoro-2,3-dimethylphenyl)-1-(5-oxo-4,5-dihydro-1,3,4-oxadiazol-2-yl)propyl)sulfamoyl)benzamide]",CI value,[1]; [4],0.451
same,Fa value,[1]; [4],0.6993
same,CI value,[1]; [5],0.243
same,Fa value,[1]; [5],0.9038
same,CI value,[1]; [6],0.264
same,Fa value,[1]; [6],0.8782
same,CI value,[1]; [7],0.197
same,Fa value,[1]; [7],0.9579
same,CI value,[1]; [8],0.218
same,Fa value,[1]; [8],0.9579
same,"antitumor effect (relative tumor volume, RTV)",[2],antitumor effect
same,IC50,[3],1.56 µM
